Patent US6767906B2, “2-amino-6-anilino-purines and their use as medicaments” (Novartis AG, priority 1999, dated 2004)

SMILES: CCn1cnc2c(Nc3cccc(C(=O)NCc4ccc(C)cc4)c3)nc(N[C@H]3CC[C@H](O)CC3)nc21 [Example 74, 3-[9-ethyl-2-(trans-4-hydroxy-cyclohexylamino)-9H-purin-6-yl-amino]-N-(4-methyl-benzyl)-benzamide]
- melting point: 130 to 134 °C
